We go through one compound from patent US20190046536A1, “Combination Therapy” (Eli Lilly and Company, priority 2016, published 2019).

This data set in a line: Stability of the crystal form. The data set is classed as physicochemical. The following applies: room temperature and relative humidity greater than about 15%.

On to `COc1cnc(C(=O)Nc2ccc(F)c([C@]34CN(c5ncc(F)cn5)C[C@H]3CSC(N)=N4)c2)cn1` [Example 2, N-[3-[(4aR,7aS)-2-Amino-6-(5-fluoropyrimidin-2-yl)-4,4a, 5,7-tetrahydropyrrolo[3,4-d][1,3]thiazin-7a-yl]-4-fluoro-phenyl]-5-methoxy-pyrazine-2-carboxamide], for which the crystal form stability result is given as “stable crystal form”.
